Earlier results on one compound are cited in US20220220135A1 (BAR-ILAN UNIVERSITY, priority 2019, published 2022).

A word on the Ki: it is a dissociation constant, usually derived from enzyme kinetics or from competition with a known ligand.

Common to all, as to conditions: literature value; cited from earlier work
In one data set the target is T1, NPP1 (Homo sapiens, UniProt P22413).
T1 sequence (P22413 1-925): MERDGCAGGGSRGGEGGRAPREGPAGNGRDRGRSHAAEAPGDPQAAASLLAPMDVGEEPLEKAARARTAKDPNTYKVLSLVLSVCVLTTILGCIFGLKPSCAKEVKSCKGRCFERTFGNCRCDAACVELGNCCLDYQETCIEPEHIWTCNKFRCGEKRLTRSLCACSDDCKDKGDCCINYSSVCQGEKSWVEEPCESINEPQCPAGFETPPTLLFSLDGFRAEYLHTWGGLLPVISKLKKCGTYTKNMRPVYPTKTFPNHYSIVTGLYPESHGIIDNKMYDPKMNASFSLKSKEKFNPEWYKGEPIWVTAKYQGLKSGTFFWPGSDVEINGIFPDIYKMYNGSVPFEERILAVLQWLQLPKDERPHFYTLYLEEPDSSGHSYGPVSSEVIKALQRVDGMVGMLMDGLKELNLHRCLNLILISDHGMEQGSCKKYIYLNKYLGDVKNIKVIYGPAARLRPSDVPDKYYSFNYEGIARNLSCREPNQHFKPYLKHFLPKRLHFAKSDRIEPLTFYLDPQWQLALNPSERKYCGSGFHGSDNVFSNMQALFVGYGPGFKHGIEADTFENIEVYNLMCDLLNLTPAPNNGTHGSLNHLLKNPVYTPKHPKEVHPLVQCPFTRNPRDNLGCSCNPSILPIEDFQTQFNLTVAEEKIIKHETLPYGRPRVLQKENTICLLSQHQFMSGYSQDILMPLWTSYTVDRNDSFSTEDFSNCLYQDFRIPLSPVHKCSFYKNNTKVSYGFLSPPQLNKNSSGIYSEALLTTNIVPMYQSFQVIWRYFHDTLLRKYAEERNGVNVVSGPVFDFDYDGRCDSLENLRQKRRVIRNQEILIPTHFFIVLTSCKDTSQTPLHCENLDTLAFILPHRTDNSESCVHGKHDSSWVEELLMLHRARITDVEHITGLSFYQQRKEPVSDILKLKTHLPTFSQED

The target of another data set is T2, human NPP3 (Homo sapiens, UniProt O14638).
T2 sequence (O14638 1-875): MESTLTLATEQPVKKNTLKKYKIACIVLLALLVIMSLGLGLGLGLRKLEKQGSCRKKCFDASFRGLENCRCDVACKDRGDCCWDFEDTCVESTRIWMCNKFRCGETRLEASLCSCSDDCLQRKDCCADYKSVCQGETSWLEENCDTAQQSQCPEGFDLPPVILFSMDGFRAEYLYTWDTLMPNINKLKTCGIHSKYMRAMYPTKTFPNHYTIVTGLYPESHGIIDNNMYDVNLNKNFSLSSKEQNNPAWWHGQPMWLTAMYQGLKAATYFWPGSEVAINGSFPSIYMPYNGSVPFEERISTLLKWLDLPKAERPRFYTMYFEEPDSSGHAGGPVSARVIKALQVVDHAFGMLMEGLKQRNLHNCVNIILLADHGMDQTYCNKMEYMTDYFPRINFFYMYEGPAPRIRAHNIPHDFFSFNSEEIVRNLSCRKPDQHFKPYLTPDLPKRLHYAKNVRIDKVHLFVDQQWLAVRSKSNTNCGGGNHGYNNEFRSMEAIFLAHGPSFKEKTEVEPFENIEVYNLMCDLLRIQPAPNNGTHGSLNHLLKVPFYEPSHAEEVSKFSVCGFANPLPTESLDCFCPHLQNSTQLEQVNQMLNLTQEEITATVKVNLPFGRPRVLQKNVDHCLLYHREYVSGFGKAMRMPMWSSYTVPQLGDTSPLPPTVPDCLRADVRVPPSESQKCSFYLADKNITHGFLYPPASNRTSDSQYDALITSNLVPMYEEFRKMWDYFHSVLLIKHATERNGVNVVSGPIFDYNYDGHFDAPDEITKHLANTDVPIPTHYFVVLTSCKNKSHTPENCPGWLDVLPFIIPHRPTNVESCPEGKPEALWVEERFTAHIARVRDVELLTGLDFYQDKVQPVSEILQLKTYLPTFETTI

A further data set addresses T3, Human CD39 (NTPDase1) (Homo sapiens, UniProt P49961).
T3 sequence (P49961 1-510): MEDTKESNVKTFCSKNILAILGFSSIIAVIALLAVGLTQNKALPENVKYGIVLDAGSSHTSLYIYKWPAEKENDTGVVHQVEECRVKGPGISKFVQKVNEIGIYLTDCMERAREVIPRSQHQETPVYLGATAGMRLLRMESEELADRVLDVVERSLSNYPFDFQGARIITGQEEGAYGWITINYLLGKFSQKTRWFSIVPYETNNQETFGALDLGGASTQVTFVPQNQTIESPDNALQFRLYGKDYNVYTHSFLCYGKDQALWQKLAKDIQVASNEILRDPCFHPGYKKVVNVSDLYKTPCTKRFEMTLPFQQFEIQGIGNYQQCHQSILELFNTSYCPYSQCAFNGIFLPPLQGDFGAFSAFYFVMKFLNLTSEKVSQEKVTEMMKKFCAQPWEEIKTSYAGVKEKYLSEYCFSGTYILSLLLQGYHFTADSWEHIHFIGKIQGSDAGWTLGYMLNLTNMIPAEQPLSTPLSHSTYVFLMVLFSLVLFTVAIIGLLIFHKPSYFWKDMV

A further data set deals with T4, Human CD73 (Homo sapiens, UniProt P21589).
T4 sequence (P21589 27-549): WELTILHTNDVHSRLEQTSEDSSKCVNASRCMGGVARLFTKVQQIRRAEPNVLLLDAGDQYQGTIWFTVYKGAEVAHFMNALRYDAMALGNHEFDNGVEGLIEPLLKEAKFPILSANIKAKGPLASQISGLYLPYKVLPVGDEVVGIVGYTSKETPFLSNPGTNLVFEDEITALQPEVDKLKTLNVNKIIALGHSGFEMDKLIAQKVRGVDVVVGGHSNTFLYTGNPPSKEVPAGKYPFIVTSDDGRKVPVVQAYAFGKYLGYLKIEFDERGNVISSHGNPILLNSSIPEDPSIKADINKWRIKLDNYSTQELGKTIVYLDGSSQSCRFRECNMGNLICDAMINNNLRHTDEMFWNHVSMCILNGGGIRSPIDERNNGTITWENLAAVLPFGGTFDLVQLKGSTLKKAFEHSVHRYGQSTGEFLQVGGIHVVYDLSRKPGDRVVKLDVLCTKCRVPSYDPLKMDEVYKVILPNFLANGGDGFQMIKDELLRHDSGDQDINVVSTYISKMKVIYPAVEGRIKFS

Turning to `Nc1c(S(=O)(=O)O)cc(Nc2ccc(Nc3nc(Cl)nc(Nc4cccc(S(=O)(=O)O)c4)n3)c(S(=O)(=O)O)c2)c2c1C(=O)c1ccccc1C2=O` [Reactive Blue 2], the Ki at NPP1 was 0.52 µM; at human NPP3 it was 0.71 µM; on Human CD39 (NTPDase1) it was 20 µM; on Human CD73, 3.07 µM.
